The values that follow come from patent US20060062850A1, “Controlled release antimicrobial polymer compositions” (priority 2004, published 2006).

The test system of assay [1] is L. monocytogenes 15313. Description: film on lawn assay. In kind it is cell-based. The following applies: incubation at 37 C. As for the experimental part: In a film on lawn assay, films of Example 1 and Example 2 were cut into 15 mm by 15 mm samples, placed onto aluminum foil, and exposed to UV light in a laminar flow hood for 4 to 7 minutes. The samples were then transferred from the foil to one of six freshly made up antimicrobial solutions to imbibe for 12 to 24 hours at a specified temperature (4° C. or 37° C.). The films are expected to substantially reach equilibration in less than 12 hours. The films were removed with a pair of flame-sterilized ocular forceps, allowed to drip dry, and held for 60 seconds on a sterile Petri dish before positioning on TSA and MOX agar plates. The agar plates had been prepared as described above with respect to the spot on lawn assay. Two films were placed on each of the prepared agar plates, in well-separated regions. A third 15 mm×15 mm film was imbibed under the same conditions in a negative control solution and placed in another region of the plate. Three plates were prepared in this manner for each concentration of each antimicrobial agent. In the case of the MOX agar plates, a fourth plate was prepared with the same level of innoculum, with no films in it, to serve as a growth indicator plate for color change. After film placement, the plates were allowed to stand undisturbed for 10 to 30 minutes in a laminar flow hood before incubation for at least 24 hours.
Incubation took place at either 4° C. for 14 to 28 days or 37° C. for two to five days. The incubation conditions are noted in the Tables.
The zone of inhibition resulting from each spot of antimicrobial solution was measured as described above, with respect to the spot on lawn assay. The values reported in Tables 5 and 6 are the average of 12 measurements. Occasionally inhibition could be observed on the MOX agar plates, but not easily measured, owing to the relatively diffuse boundaries between areas of inhibition and non-inhibition. In such cases, a qualitative description of the results is provided.

The subject of assay [2] is L. monocytogenes 15313. The assay is described as follows: spot on lawn assay. Format: cell-based. As for the experimental part:
For each concentration of each antimicrobial agent, a spot on lawn assay was conducted as a positive control experiment to assess the efficacy of the antimicrobial solutions. In this assay, Trypticase Soy Agar (TSA) and Modified Oxford Agar (MOX) agar plates were inoculated with L. monocytogenes 15313 at a level of 10E+08 cfu/ml through an Autoplate 4000 model from Spiral Biotech, Inc., of Norwood, Mass. A volumetric pipette pump was then used to place three 10 μl spots of antimicrobial solution onto three well-separated regions of the test plate. Another volumetric pipette pump was used to place 10 μl of a negative control solution (i.e., neat solvent(s)) onto another well-separated region. Three such agar plates were prepared for each concentration of antimicrobial solution. After spot placement, the agar plates were allowed to stand undisturbed for 10 to 30 minutes in a laminar flow hood before incubation at 37° C. for at least 24 hours.
The zone of inhibition resulting from each spot of antimicrobial solution was measured using a dial caliper (available from Brown and Sharpe of North Kingstown, R.I.; accuracy to 0.02 mm). Each zone of inhibition was measured twice, once on each of two perpendicular axes. The values reported in Tables 2 (TSA plates) and 3 (MOX plates) are the average of 18 measurements.

Turning to `O=C(O)c1ccccc1` [Benzoic acid], the “Group averages of Inhibition Zones, Film on Lawn Assay Example 1” value in assay [1] (MOX Agar Plates, Example 1 film soaked at 37 C. in 0.75 wt % solution, Ethanol/Water (36/63.25)) is given as 0 (no inhibition) mm; in assay [1] (MOX Agar Plates, Example 1 film soaked at 37 C. in 1.5 wt % solution, Ethanol/Water (36/62.5)) it was 24.0 ± 3.34 mm; in assay [1] (MOX Agar Plates, Example 1 film soaked at 37 C. in 3.0 wt % solution, Ethanol/Water (36/61)) it was 39.52 ± 2.93 mm; in assay [1] (TSA Agar, Example 1 film soaked at 37 C. in 0.75 wt % solution, Ethanol/Water (36/63.25)), 0 (no inhibition) mm; in assay [1] (TSA Agar, Example 1 film soaked at 37 C. in 1.5 wt % solution, Ethanol/Water (36/62.5)), 17.68 ± 1.64 mm; in assay [1] (TSA Agar, Example 1 film soaked at 37 C. in 3.0 wt % solution, Ethanol/Water (36/61)) it was 20.17 ± 1.19 mm. Moreover, the “Group averages of Inhibition Zones, Film on Lawn Assay Example 2” value is recorded as 0 (no inhibition) mm in assay [1] (MOX Agar Plates, Example 2 film soaked at 37 C. in 0.75 wt % solution, Ethanol/Water (36/63.25)); 21.38 ± 3.90 mm in assay [1] (MOX Agar Plates, Example 2 film soaked at 37 C. in 1.5 wt % solution, Ethanol/Water (36/62.5)); 32.29 ± 7.53 mm in assay [1] (MOX Agar Plates, Example 2 film soaked at 37 C. in 3.0 wt % solution, Ethanol/Water (36/61)); 0 (no inhibition) mm in assay [1] (TSA Agar, Example 2 film soaked at 37 C. in 0.75 wt % solution, Ethanol/Water (36/63.25)); 18.60 ± 0.61 mm in assay [1] (TSA Agar, Example 2 film soaked at 37 C. in 1.5 wt % solution, Ethanol/Water (36/62.5)); 18.90 ± 1.82 mm in assay [1] (TSA Agar, Example 2 film soaked at 37 C. in 3.0 wt % solution, Ethanol/Water (36/61)). Moreover, the “Group averages of Inhibition Zones, Spot on Lawn Assay” value in assay [2] (MOX Agar Plates, 0.75 wt % in Ethanol/Water (36/63.25)) is 7.91 mm; in assay [2] (MOX Agar Plates, 1.5 wt % in Ethanol/Water (36/62.5)), 8.66 mm; in assay [2] (MOX Agar Plates, 3.0 wt % in Ethanol/Water (36/61)), 8.75 mm; in assay [2] (TSA Agar, 0.75 wt % in Ethanol/Water (36/63.25)), 8.13 ± 0.27 mm; in assay [2] (TSA Agar, 1.5 wt % in Ethanol/Water (36/62.5)) it was 8.32 ± 0.69 mm; in assay [2] (TSA Agar, 3.0 wt % in Ethanol/Water (36/61)), 8.32 ± 0.53 mm.
